For the assay, the target named is Epidermal growth factor receptor (Homo sapiens, UniProt P00533). Briefly: Concentration required to inhibit autophosphorylation of cytoplasmic domain of epidermal growth factor receptor (EGFR).

Molecules are shown by their SMILES.

Sequence of Epidermal growth factor receptor (P00533 whole entry, the tested form may be a part): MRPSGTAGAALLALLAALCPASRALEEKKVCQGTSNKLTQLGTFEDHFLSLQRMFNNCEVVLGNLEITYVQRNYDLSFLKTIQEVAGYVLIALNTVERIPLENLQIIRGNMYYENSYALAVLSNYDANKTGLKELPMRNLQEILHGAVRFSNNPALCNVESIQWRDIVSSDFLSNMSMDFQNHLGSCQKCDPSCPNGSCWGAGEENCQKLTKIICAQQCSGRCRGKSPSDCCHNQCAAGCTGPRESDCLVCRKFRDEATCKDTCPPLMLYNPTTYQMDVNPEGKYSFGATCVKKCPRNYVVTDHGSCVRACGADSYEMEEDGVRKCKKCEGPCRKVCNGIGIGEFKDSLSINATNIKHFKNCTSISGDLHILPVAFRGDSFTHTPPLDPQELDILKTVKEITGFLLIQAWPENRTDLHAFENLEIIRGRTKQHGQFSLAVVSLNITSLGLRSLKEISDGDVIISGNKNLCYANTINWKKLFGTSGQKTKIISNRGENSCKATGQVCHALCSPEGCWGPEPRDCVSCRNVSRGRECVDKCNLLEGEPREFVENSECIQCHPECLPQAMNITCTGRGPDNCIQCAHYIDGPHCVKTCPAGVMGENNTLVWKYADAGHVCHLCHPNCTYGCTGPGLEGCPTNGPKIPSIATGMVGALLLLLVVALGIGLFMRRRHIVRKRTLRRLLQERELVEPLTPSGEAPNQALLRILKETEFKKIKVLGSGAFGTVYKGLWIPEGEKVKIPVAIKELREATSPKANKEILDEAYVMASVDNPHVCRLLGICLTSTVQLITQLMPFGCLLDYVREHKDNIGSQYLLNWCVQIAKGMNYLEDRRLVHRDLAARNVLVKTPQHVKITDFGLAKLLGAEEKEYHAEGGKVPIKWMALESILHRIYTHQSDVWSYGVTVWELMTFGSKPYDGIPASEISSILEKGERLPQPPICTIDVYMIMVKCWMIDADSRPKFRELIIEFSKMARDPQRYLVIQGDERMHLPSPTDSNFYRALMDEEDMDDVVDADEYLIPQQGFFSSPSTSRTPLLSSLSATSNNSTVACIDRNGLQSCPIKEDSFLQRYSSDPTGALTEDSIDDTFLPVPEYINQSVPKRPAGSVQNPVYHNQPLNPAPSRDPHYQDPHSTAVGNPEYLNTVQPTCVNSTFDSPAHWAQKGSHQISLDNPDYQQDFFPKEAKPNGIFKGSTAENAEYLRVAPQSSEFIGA

Compound `COC[C@@H]1CCCN1CC#CC(=O)Nc1ccc2ncc(C#N)c(Nc3cccc(Br)c3)c2c1` had an IC50 of 150 nM.

As a reminder, the IC50 is the midpoint of a concentration-inhibition curve. A high value points to weaker potency in that assay.

For the origin of these results see ChEMBL document CHEMBL1147456, “Binding modes of 6,7 di-substituted 4-anilinoquinoline-3-carbonitriles to EGFR” (Bioorg Med Chem Lett, 2004).
